Earlier results on 1 compound are cited in patent US8288366B2, “Formulation for hair growth” (priority 2006, dated 2012).

This series has as its system mice with a mutant hairless gene. The settings on record: applied topically.

Turning to `N[C@@H](Cc1cc(I)c(Oc2ccc(O)c(I)c2)c(I)c1)C(=O)O` [T3, triiodothyronine], the hair growth entry is given as “stimulate hair growth”.
